Experimental data taken from patent US20210023030A1 (priority 2018, published 2021).
pEC50: −log10 of the molar value.

What was measured:
[1] = test system: primary human intestinal organoids; assay type: cell-based
Description: (§1) To measure the effect of (R)-3-HB on inflammation of primary human intestinal organoids, healthy large intestine samples of a donor were cultured for 8 weeks in vitro prior to experiments. Method as used in Hannan et al., Stem Cell Reports. Vol. 1, 293-306 Oct. 15, 2013.
2) To induce inflammation, organoids were treated with TNF-α (40 ng/mL) alone or in combination with (R)-3-HB (sodium salts at 10 μM) for 18 hours. Subsequently, cells were lysed and RNA was isolated for cDNA synthesis and mRNA expression levels of a panel of inflammation factors was measured by qPCR.

[2] = molecular target: HCA2 receptor (gpr109A) (Mus musculus, UniProt Q9EP66); conditions: read-out: EC50 of binding to HCA2 receptor; cited from earlier work
[3] = test system: primary human intestinal organoids; assay type: cell-based; conditions: TNF-α 60 ng/mL, 24 hours
Description: 3) The effect of (R)-3-HB and the related SCFA butyrate on the inflammatory response exerted by primary human intestinal organoids upon co-incubation with TNF-α as inflammatory stimulus was measured. Primary human intestinal organoids were cultured for 8 weeks prior to experiments as described in Hannan et al. (2013) Stem Cell Reports.
To induce inflammation, organoids were treated with 60 ng/mL TNF-α alone or in combination with different concentrations of the sodium salts of (R)-3-HB or butyrate for 24 hours. Subsequently, cells were lysed and RNA was isolated using the RNeasy mini kit (Qiagen Ltd, Germany) for synthesis of cDNA. mRNA expression levels of IL-23 was measured by qPCR using the SensiMix SYBR low-ROX kit (Bioline, UK).
Values were normalized versus untreated control and graphs show the difference of mRNA levels measured in organoids treated with TNF-α alone (set as 0) and those treated with TNF-α and butyrate or (R)-3-HB.

[4] = test system: primary human intestinal organoids; assay type: cell-based; conditions: TNFα 40 ng/mL, 10 μM, 18 hours
Description: as §1
1) To induce inflammation, organoids were treated with TNFα (40 ng/mL) alone or in combination with butyrate (10 μM), (R)-3-HB (10 μM), or butyrate and (R)-3-HB for 18 hours. Subsequently, cells were lysed and RNA was isolated for cDNA synthesis and measurement of mRNA expression levels of inflammation factors, NF-κB and TNFα, by qPCR.

[5] = molecular target: NLRP3 inflammasome (Homo sapiens, UniProt Q96P20); conditions: cited from earlier work
[6] = molecular target: hydroxy-carboxylic acid receptor 2 (HCA2, GPR109A) (Mus musculus, UniProt Q9EP66); conditions: in vivo; cited from earlier work
[7] = test system: histone acetylation; conditions: cited from earlier work
[8] = TNF-α 40 ng/mL, sodium salt 10 μM, 18 hours

NLRP3 inflammasome, sequence (Q96P20 whole entry): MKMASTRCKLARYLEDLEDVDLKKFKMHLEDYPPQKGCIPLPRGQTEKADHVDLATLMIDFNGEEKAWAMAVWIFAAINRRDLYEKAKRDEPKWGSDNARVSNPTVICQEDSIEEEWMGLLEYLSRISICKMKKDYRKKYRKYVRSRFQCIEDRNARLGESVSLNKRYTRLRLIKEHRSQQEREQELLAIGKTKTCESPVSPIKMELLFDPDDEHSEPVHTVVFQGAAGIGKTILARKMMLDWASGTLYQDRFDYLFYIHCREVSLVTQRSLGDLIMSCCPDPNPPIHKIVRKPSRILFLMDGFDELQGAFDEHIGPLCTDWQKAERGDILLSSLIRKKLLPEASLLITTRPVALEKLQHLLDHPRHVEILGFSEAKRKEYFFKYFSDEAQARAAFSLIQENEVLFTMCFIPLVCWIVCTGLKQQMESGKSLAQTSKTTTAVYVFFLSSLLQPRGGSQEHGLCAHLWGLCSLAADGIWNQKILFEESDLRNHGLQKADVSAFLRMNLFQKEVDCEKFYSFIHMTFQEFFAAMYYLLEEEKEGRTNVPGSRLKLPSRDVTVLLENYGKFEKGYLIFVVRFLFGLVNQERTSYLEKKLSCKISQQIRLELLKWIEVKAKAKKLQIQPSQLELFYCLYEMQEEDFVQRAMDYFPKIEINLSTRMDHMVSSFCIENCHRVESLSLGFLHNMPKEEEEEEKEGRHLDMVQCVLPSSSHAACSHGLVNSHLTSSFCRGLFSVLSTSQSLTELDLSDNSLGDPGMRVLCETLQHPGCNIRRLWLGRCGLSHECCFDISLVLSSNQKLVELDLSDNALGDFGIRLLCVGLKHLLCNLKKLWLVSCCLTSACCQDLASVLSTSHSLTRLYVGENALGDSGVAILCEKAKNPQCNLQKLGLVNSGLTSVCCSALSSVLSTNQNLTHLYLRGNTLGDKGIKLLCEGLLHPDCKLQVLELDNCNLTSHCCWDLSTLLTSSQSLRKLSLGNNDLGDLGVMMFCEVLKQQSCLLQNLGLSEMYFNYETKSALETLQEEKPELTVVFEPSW
hydroxy-carboxylic acid receptor 2 (HCA2, GPR109A), sequence (Q9EP66 whole entry): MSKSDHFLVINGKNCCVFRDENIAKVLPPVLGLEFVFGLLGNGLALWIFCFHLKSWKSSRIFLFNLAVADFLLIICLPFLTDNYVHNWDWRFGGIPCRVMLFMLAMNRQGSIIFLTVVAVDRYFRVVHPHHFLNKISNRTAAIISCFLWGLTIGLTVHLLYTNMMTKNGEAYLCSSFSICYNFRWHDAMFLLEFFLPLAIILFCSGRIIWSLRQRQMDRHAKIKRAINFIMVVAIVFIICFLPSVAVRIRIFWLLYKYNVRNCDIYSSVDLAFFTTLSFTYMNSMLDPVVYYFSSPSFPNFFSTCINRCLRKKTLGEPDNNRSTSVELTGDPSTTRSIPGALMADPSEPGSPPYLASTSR
HCA2 receptor (gpr109A), sequence (Q9EP66 whole entry): as above

| SMILES | IL-1β mRNA expression vs TNF-α alone [1, 8] | IL-6 mRNA expression vs TNF-α alone [1, 8] | IL-10 mRNA expression vs TNF-α alone [1, 8] | IL-23 mRNA expression vs TNF-α alone [1, 8] | NF-κβ mRNA expression vs TNF-α alone [1, 8] | TGF-β1 mRNA expression vs TNF-α alone [1, 8] | TNF-α mRNA expression vs TNF-α alone [1, 8] | effect on pro-inflammatory regulators of IBD compared with butyrate ([1]; data not shown) | effect on protective regulators of intestinal inflammation compared with butyrate ([1]; data not shown) | pEC50 [2] | impact on IL-23 expression compared with butyrate ([3]; 10-100 μM) | concentrations effective at reducing expression of IL-23 ([3]; sodium salt) [µM] | NF-κB mRNA expression [4] | TNF-α mRNA expression [4] | concentration that reduced NLRP3 inflammasome activity [5] [mM] | concentration associated with neuroprotection [6] | concentration that increases histone acetylation in a dose dependent manner [7] [mM] |
| --- | --- | --- | --- | --- | --- | --- | --- | --- | --- | --- | --- | --- | --- | --- | --- | --- | --- |
| C[C@@H](O)CC(=O)O [(R)-3-HB, (R)-3-hydroxybutyrate] | decreased | decreased | increased | decreased | decreased | increased | decreased | greater reducing effect than butyrate | greater inducing effect | 3.50 | greater reducing impact | 10 to 100 | decreased | decreased |  |  |  |
| CC(O)CC(=O)O (centres unmarked) [3-HB, 3-hydroxybutyric acid] |  |  |  |  |  |  |  |  |  |  |  |  |  |  | 2 to 10 | 600-1,000 μM | 1 to 2 |
